Experimental data taken from ChEMBL document CHEMBL1136345, “Heterocyclic ketones as inhibitors of histone deacetylase” (Bioorg Med Chem Lett, 2003).

Legend:
[1] = target: Histone deacetylase; experiment: Inhibitory activity against Histone deacetylase (HDAC) in K 562 erythroleukemia cells (Radioactivity based HDAC assay); parameters: species or system Homo sapiens
[2] = target: Histone deacetylase; experiment: In vitro inhibition of Histone deacetylase in K 562 erythroleukemia cells.; parameters: species or system Homo sapiens
[3] = Anti-proliferative activity against MDA-435 cells mediated by HDAC inhibition; type: functional, cell-based; conditions: Homo sapiens, MDA435
[4] = target: Histone deacetylase; parameters: species or system Homo sapiens
[5] = Half-life was determined; type: ADME; conditions: human

SMILES | IC50 [1] [nM] | IC50 [2] [nM] | other results
O=C(CCCCCCOc1ccc(-c2ccccc2)cc1)c1nc2ncccc2o1 | > 50000 |  | 
O=C(CCCCCCOc1ccc(-c2ccccc2)cc1)c1nnn[nH]1 |  | 2000 | 
O=C(CCCCCCOc1ccc(-c2ccccc2)cc1)C1=NCCO1 |  | 1800 | 
O=C(CCCCCCOc1ccc(-c2ccccc2)cc1)c1ncc[nH]1 | > 50000 |  | 
O=C(CCCCCCC(=O)c1ncco1)NNC(=O)c1ccc(-c2ccccc2)cc1 | 1830 |  | 
COc1ccc(-c2csc(NC(=O)CCCCCCC(=O)c3ncco3)n2)cc1 |  | 30 | IC50 [3]: 2300 nM
O=C(CCCCCCSc1ccc2ccccc2c1)c1ncco1 |  | 540 | 
O=C(CCCCCCOc1ccc2ccccc2c1)c1ncco1 |  | 520 | 
O=C(NCCCCCCC(=O)c1ncco1)c1cc2ccccc2[nH]1 |  | 90 | 
O=C(CCCCCC(=O)c1ncco1)Nc1cccc(-c2ccccc2)c1 |  | 310 | 
O=C(CCCCCC(=O)c1ncco1)NCc1ccc(Cl)cc1 |  | 6400 | 
O=C(NCCCCCC(=O)c1ncco1)c1cc2ccccc2[nH]1 |  | 340 | 
O=C(CCCCCCC(=O)c1ncco1)Nc1ccc(Oc2ccccc2)cc1 |  | 580 | 
O=C(CCCCCCC(=O)c1ncco1)Nc1ccc(Cl)cc1 |  | 320 | 
CNC(=O)C(=O)CCCCCCOc1ccc(-c2ccccc2)cc1 |  |  | IC50 [4]: 110 nM
O=C(CCCCCC(=O)c1ncco1)Nc1ccc(Cl)cc1 |  | 1500 | 

SMILES | IC50 [1] [nM] | IC50 [2] [nM] | other results
O=C(CCCCCCC(=O)c1ncco1)Nc1cccc(-c2ccccc2)c1 |  | 60 | 
O=C(CCCCCCS(=O)(=O)c1ccc2ccccc2c1)c1ncco1 |  | 610 | 
O=C(CCCCCCOc1ccc(-c2ccccc2)cc1)c1ncco1 |  | 1100 | half-life [5]: 10.8 min
O=C(CCCCCCOc1ccc(-c2ccccc2)cc1)c1nc2ccccc2o1 | > 50000 |  | 
O=C(CCCCC/C=C/c1ccc(-c2ccccc2)cc1)c1ncco1 |  | 990 | 
O=C(CCCCCCOc1ccc(-c2ccccc2)cc1)c1ccccn1 | > 50000 |  | 
Cn1ccnc1C(=O)CCCCCCOc1ccc(-c2ccccc2)cc1 | > 50000 |  | 
O=C(c1ncco1)[C@@H]1C[C@H]1CCCCOc1ccc(Oc2ccccc2)cc1 | > 50000 |  | 
O=C(CCCCCC(=O)c1ncco1)NNc1ccc(Cl)cc1 | > 10000 |  | 
O=C(CCCCCCc1nnc(-c2ccc(-c3ccccc3)cc2)o1)c1ncco1 | 250 |  | 
O=C(CCCCCCNc1ccc2ccccc2c1)c1ncco1 |  | 430 | 
O=C(CCCCCCOc1cccc(-c2ccccc2)c1)c1ncco1 |  | 620 | half-life [5]: 12.6 min
Cn1cncc1C(=O)CCCCCCOc1ccc(-c2ccccc2)cc1 | > 50000 |  | 
OC(CCCCCCOc1cccc(-c2ccccc2)c1)c1ncco1 (centres undefined) | > 50000 |  | 
O=C(CCCCCCOc1ccc(-c2ccccc2)cc1)c1nccs1 | > 50000 |  | 
